Measured values reported in patent publication US10329316B2, “Phenylpropanoid compound and preparation method and use thereof” (QIANJIN PHARMACEUTICAL CO., LTD., priority 2016, dated 2019).
“Also recorded” adds a separate entry of the source.

Tests used:
[1] = test system: hydroxyl radical (OH); assay: Determination of OH concentration in LPS-stimulated Raw 264.7 cells (OH kit); assay type: cell-based, mouse; conditions: 4.13-12.38 μg/ml, LPS 30 μg/ml 24 h, dose-dependent
Experimental: (§1) Mouse IL-1-beta ELISA kit, batch number: 2014/06 (96T), Mouse IL-6 ELISA kit, batch number: 2014/06 (96T), Mouse tumor necrosis factor-alpha (TNF-α) ELISA kit, batch number: 2014/06 (96T), Mouse NO ELISA Kit Batch number: 2014/10 (96T), mouse hydroxyl radical (OH) ELISA detection kit, batch number: 2014/10 (96T).
(§2) Raw 264.7 cells were inoculated on a 96-well plate for 24 hours, then synchronized for 24 hours. The cells were treated with different concentration of medicine for 2 hours, and then stimulated with LPS (30 μg/ml) for 24 hours. Lastly, supernatant was collected and centrifuged for 5 minutes at 10,000 rpm. The supernatant was separated and stored at −80° C. for reserve. The concentration of NO was determined by mouse NO kit.
Sample prepared at 1.5 was used for OH factor determination. The concentration was determined by OH kit.

[2] = test system: TNF-α; assay: Measurement of inflammatory factor TNF-α in LPS-stimulated Raw 264.7 cells (ELISA kit); assay type: cell-based, mouse; conditions: 6.88±12.38 μg/ml (6.88 to 12.38 μg/mL), LPS 30 μg/ml 24 h, p<0.05, dose-dependent, FIG. 3
Experimental: as §1, §2
(§3) Sample prepared in at 1.5 was used for subsequent inflammatory factor determination. The amount of TNF-α, IL-1β, IL-6 produced by cells was measured by mouse TNF-α, IL-1β, and IL-6 kit.

[3] = test system: IL-1β; assay: Measurement of inflammatory factor IL-1β in LPS-stimulated Raw 264.7 cells (ELISA kit); assay type: cell-based, mouse; conditions: at various concentrations; LPS 30 μg/ml 24 h; p>0.05; FIG. 4
Experimental: as §1, §2, §3

[4] = test system: IL-6; assay: Measurement of inflammatory factor IL-6 in LPS-stimulated Raw 264.7 cells (ELISA kit); assay type: cell-based, mouse; conditions: at various concentrations; LPS 30 μg/ml 24 h; p>0.05; FIG. 5
Experimental: as §1, §2, §3

[5] = test system: Raw 264.7 cells; assay: Determination of cell vitality by MTT method; assay type: cell-based, mouse; conditions: 1.37 to 12.37 μg/ml, 2 h medicine, then LPS 30 μg/ml 24 h, FIG. 1
Experimental: (§4) Medicine was first dissolved in a small amount of DMSO, and then diluted to a certain concentration with DMEM, so that final concentration of DMSO was less than 1%.
(§5) Raw 264.7 mouse macrophages were incubated in DMEM medium containing 10% heat-inactivated fetal bovine serum (FBS), 10 U/mL penicillin sodium and 100 μg/ml streptomycin, and incubated in 37° C., 5% CO2 incubator.
Cell vitality was determined by MTT method. Cell suspension liquid was inoculated into a 96-well plate (1*104 holes/pore) to incubate for 24 hours and then synchronize for 24 hours. The cells were treated with different concentration of medicine for 2 hours, and then stimulated by LPS (30 μg/ml) for 24 hours. Original medium was abandoned, and MTT (0.5 mg/ml) was added into each hole for 4 hours. The medium was then abandoned and DMSO ([…]) was added into each hole. Absorbance was measured at 490 nm after shaking for 10 min.

[6] = test system: NO; assay: Determination of NO concentration in LPS-stimulated Raw 264.7 cells (mouse NO kit); assay type: cell-based; conditions: 6.88±12.38 μg/ml (6.88 to 12.38 μg/mL), LPS 30 μg/ml 24 h, dose-dependent
Experimental: as §4, §5, §2

effect on vitality of Raw 264.7 cells [5]: no significant effect
Structure (SMILES): O=C(CCO)Oc1cc(O)c(OC2OC(CO)C(O)C(O)C2O)c(O)c1 (stereo not drawn) [MM-125]
inhibition of the increase of OH concentration induced by LPS ([1]; FIG. 6): significantly inhibit; also recorded: significant inhibitory effects
inhibition of the increase of OH concentration induced by LPS ([1]; FIG. 6, listed as phenylpropanoid compound): significant effect on inhibiting
inhibition of production of TNF-α in Raw 264.7 cells [2]: significantly inhibit; also recorded: certain level of inhibiting effects
inhibition of production of TNF-α in Raw 264.7 cells ([2]; listed as phenylpropanoid compound): significantly inhibit
inhibition of production of IL-1β in Raw 264.7 cells [3]: could not inhibit; also recorded: no obvious inhibitory effect
inhibition of production of IL-6 in Raw 264.7 cells [4]: could not inhibit; also recorded: no obvious inhibitory effect
inhibition of the increase of NO concentration induced by LPS ([6]; FIG. 2): significantly inhibit; also recorded: significant inhibitory effects
inhibition of the increase of NO concentration induced by LPS ([6]; FIG. 2, listed as phenylpropanoid compound): significant effect on inhibiting
